This note sets out measurements from US20260069552A1, “Methods of Providing a Cooling Sensation to Skin Afflicted with Eczema” (Kenvue Brands LLC, priority 2022, published 2026).

The assay deals with Staphylococcus epidermidis (ATCC 12228). In words: In vitro bacteria competition assay (co-culture). The format is cell-based. As to conditions: 1:1 co-culture with S. aureus in Nutrient Broth, 24 hours aerobic, CFU/mL; versus untreated; w/v % as in label; n=3. As for the experimental part: In vitro bacteria competition assay evaluated Staphylococcus epidermidis (ATCC 12228, skin health associated strain) and Staphylococcus aureus (ATCC 6538, human lesion isolate) co-culture in the presence of test materials. Percentages are w/v % in liquid medium (Nutrient Broth, Culture Media and Supplies Inc.) To mimic the microenvironment of the skin surface, an aerobic, co-culture system of S. epidermidis and S. aureus was established. 50 μL S. epidermidis and 50 μL S. aureus (a 1:1 ratio) were inoculated (50 μL at approximately 5.0×10^6 CFU/mL each) in Nutrient Broth and in the presence of the test materials as specified in Table 14 below. [table] Test groups were incubated aerobically for 24 hours (n=3 per test group) After 24 hours, each test group was plated onto agar and incubated aerobically for 24 hours […]. After incubation, colonies were counted, and CFU/mL calculated. S. epidermidis and S. aureus colonies were differentiated on agar (Tryptic Soy Agar+5% sheep's blood, BD Diagnostics) based on representative morphology.

Regarding `CC(O)C(=O)O` (stereo not shown) [Lactic Acid (1.1%), Lactic acid], the “S. epidermidis growth in bacteria competition assay” value is reported as “inhibited”.
